Converted amounts (≈) assume the structure as drawn.

Common to all, as to assay type: cell-based
Assay [1] concerns Arthroderma vanbreuseghemii (JCM1891). In words: Test Example 2 minimum inhibitory concentration. To be noted: Trichophyton mentagrophytes, Sabouraud medium, 25° C. for 120 hours. How it is done:
(§1) Test Microbial Strains: Candida albicans (NBRC1594 Strain), Candida glabrata (JCM3761 Strain), Cryptococcus neoformans (JCM3685 Strain), Aspergillus fumigatus (JCM10253), Aspergillus niger (ATCC6725), Trichophyton rubrum (ATCCMYA4607), Trichophyton interdegitale (ATCC9533), Microsporum canis (NBRC7863), and Arthroderma vanbreuseghemii (JCM1891)
(§2) The Candida microbes and the Cryptococcus microbe were cultured at 30° C. for 72 hours and the other microbes were cultured at 25° C. for 120 hours in Sabouraud media, and then suspended in 5 mL of PBS (containing 8 g of sodium chloride, 2.9 g of disodium hydrogen phosphate, 0.2 g of potassium chloride, and 0.2 g of potassium dihydrogen phosphate in 1000 mL) containing Tween80 (polyoxyethylene sorbitan monooleate: Kanto Chemical Co., Inc.) (1% (V/V))), and the resulting suspension was filtered through a cell strainer (φ40 μm). Spores were recovered from the filtrate by centrifugation (3500 rpm, 5 minutes) and washed twice with physiological saline, and then a spore suspension was prepared (1×10^6 spores/mL). 50 μL of the spore suspension was inoculated into a Sabouraud medium to which compound No. 6 dissolved in DMSO was added to have a predetermined concentration. The Candida microbes and the Cryptococcus microbe were cultured at 30° C. for 72 hours and the other microbes were cultured at 25° C. for 120 hours, then the presence or absence of colony growth was investigated, and the minimum inhibitory concentration was determined.

The test system of assay [2] is Aspergillus fumigatus (JCM10253). In words: Test Example 2 minimum inhibitory concentration. The note with it: Sabouraud medium, 25° C. for 120 hours. How it is done: as §1, §2
Assay [3] relates to Aspergillus niger (ATCC6725). In words: Test Example 2 minimum inhibitory concentration. To be noted: Sabouraud medium, 25° C. for 120 hours. How it is done: as §1, §2
In assay [4] the test system is Candida albicans (NBRC1594 Strain). In words: Test Example 2 minimum inhibitory concentration. The note with it: Sabouraud medium, 30° C. for 72 hours. How it is done:
as §1, §2

The test system of assay [5] is Cryptococcus neoformans (JCM3685 Strain). In words: Test Example 2 minimum inhibitory concentration. The note with it: Sabouraud medium, 30° C. for 72 hours. How it is done: as §1, §2
The test system of assay [6] is Trichophyton interdegitale (ATCC9533). Briefly: Test Example 2 minimum inhibitory concentration. The note with it: Sabouraud medium, 25° C. for 120 hours. How it is done:
as §1, §2

Assay [7] deals with Microsporum canis (IFM63627). In words: Test Example 4 antifungal activity test, minimum inhibitory concentration (MIC100). The note with it: Sabouraud medium, 32° C. for 72 hours. As to the method: (§3) Test Microbial Strains: Trichophyton rubrum (ATCCMYA4607), and Microsporum canis (IFM63627)
(§4) The antifungal activity was studied by partially modifying the method of Test Example 2. Trichophyton rubrum was cultured in a Sabouraud medium and Microsporum canis was cultured in a 1/10 Sabouraud medium, at 32° C. for 168 hours to form spores. For Trichophyton rubrum, hyphae were peeled off from the surface of the medium and recovered in a tube, physiological saline (Otsuka Normal Saline; containing 9 g of sodium chloride in 1000 mL) was added, these were wholly admixed using a disposable loop (type 1 (1 μL)) for dispersion, and a spore suspension containing the hyphae was recovered. […] The spore suspensions containing the hyphae of Trichophyton rubrum and Microsporum canis, respectively, were filtered through a cell strainer ((40 μm). The spores were recovered from the filtrate by centrifugation (3500 rpm, 5 minutes) and washed twice with physiological saline, and then a spore suspension was prepared (1×10^7 spores/mL). 10 μL of the spore suspension was inoculated into a Sabouraud medium to which the test compound dissolved in DMSO was added to have a predetermined concentration. Trichophyton rubrum, Microsporum canis was cultured at 32° C. for 72 hours, then the presence or absence of colony growth was investigated, and the minimum inhibitory concentration (MIC100) was determined.

Assay [8] concerns Trichophyton rubrum (ATCCMYA4607). Described as above. To be noted: Sabouraud medium, 32° C. for 72 hours. How it is done:
as §3, §4

For the compound `Cc1ccc(-c2nc(C#N)[nH]c2Cl)cc1Cl` [Compound No. 6, 5-Chloro-4-(3-chloro-4-methylphenyl)-1H-imidazole-2-carbonitrile], the MIC in assay [1] was 7.8 µg/mL (≈ 30.9 µM); in assay [2], 62.5 µg/mL (≈ 248 µM); in assay [3], 62.5 µg/mL (≈ 248 µM); in assay [4], 250 µg/mL (≈ 992 µM); in assay [5], 31.3 µg/mL (≈ 124 µM); in assay [6] it was 62.5 µg/mL (≈ 248 µM). For the same compound, the MIC in assay [7] and in assay [8] was 5 µg/mL (≈ 19.8 µM) in each case.

By MIC is commonly meant the least concentration at which growth counts as inhibited.

Source of the values: patent publication US20260115170A1, “Method of Ameliorating a Symptom or a Disease in a Human Caused by Fungus” (ISHIHARA SANGYO KAISHA, LTD., priority 2020, published 2026).
